In patent publication US20040014730A1, “Formulations and methods of reducing toxicity of anti-infective agents” (priority 2002, published 2004):

How the values were obtained:
[1] = Stability in acidic and basic aqueous media (proton NMR); type: physicochemical; settings: for stability in aqueous solution: pH 1.5 to 9.0
Procedure: The stability of 2,2′-dithio-bis-ethane sulfonate at room temperature was determined at pH ranges of 1.5 to 9.0.
The following experiment was performed to determine the stability of 2,2′-dithio-bis-ethane sulfonate in acidic and basic aqueous media. In a typical experiment, 50 mg of 2,2′-dithio-bis-ethane sulfonate (as produced by using the above described method) was dissolved in one ml of water and the pH was adjusted to 1.5, 2.0, 3.0, 4.0, 5.0 and 6.0 by adding 1 N hydrochloric acid in water or the pH was adjusted to 8.0 and 9.0 by adding 1 N sodium hydroxide in water. The reaction mixture was stirred for 24 hours at room temperature, the water was removed at reduced pressure, dissolved in spectral grade D2O, and the proton NMR spectrum was recorded.
The stability of 2,2′-dithio-bis-ethane sulfonate at pH 1.5 was further studied by heating the reaction mixture to 100 degrees Celsius for 10 minutes.

[2] = tested on: mice; settings: mouse, in vivo, iv
[3] = tested on: dogs; settings: dog, in vivo, iv
[4] = tested on: humans; settings: human, in vivo
[5] = cited from earlier work

Structure (SMILES) | proton NMR spectrum after stirring in aqueous solution ([1]; 50 mg in one ml water, pH 1.5, 2.0, 3.0, 4.0, 5.0, 6.0, 8.0 and 9.0, 24 hours, room temperature) | proton NMR spectrum after heating ([1]; pH 1.5, 100 degrees Celsius for 10 minutes) | stability in aqueous solution ([1]; room temperature, listed as 2,2′-Dithio-bis-ethane sulfonate) | stability in aqueous solution ([1]; room temperature, listed as 2,2′-dithio-bis-ethane sulfonate) | dose administered intravenously with no adverse effects [2] [mg/kg] | dose administered intravenously with no adverse effects [3] [mg/kg] | dose administered with no adverse effects [4] | accepted oral LD50 [5] [mg/kg]
O=S(=O)([O-])CCSSCCS(=O)(=O)[O-].[Na+].[Na+] [Dimesna, disodium 2,2′-dithiobis ethane sulfonate] | no additional peaks were observed | No change in the proton spectrum | very stable | stable | > 3750 | > 3750 | exceeding 25 g/m^2 | –
[Cl-].[Na+] [common table salt] | – | – | – | – | – | – | – | 3750
